Measured values: paper PMC8922279, “Identification of β-Lactams Active against Mycobacterium tuberculosis by a Consortium of Pharmaceutical Companies and Academic Institutions” (ACS Infectious Diseases, 2022)
Read-outs that look alike come from different tables or passages of the source.

Legend:
Mtb H37Rv [1] = assay: MIC90 against replicating (R) Mtb H37Rv, with or without clavulanate; assay type: cell-based, Mycobacterium tuberculosis; conditions: Table S4; for Mtb H37Rv R + CLAV (MIC90): clavulanate 4 μg/mL; for Mtb H37Rv R (MIC90): no clavulanate
Mtb H37Rv [2] = assay: MIC90 against nonreplicating (NR, 4-stress) Mtb H37Rv, with or without clavulanate; assay type: cell-based, Mycobacterium tuberculosis; conditions: 4-stress nonreplicating, Table S4; for Mtb H37Rv NR + CLAV (MIC90): clavulanate 4 μg/mL; for Mtb H37Rv NR (MIC90): no clavulanate
E. coli = assay: Microbial spectrum, E. coli; assay type: cell-based, Escherichia coli; conditions: clavulanate 4 μg/mL; Table S4
P. aeruginosa = assay: Microbial spectrum, P. aeruginosa; assay type: cell-based, Pseudomonas aeruginosa; conditions: clavulanate 4 μg/mL; Table S4
S. aureus = assay: Microbial spectrum, S. aureus; assay type: cell-based, Staphylococcus aureus; conditions: clavulanate 4 μg/mL; Table S4
C. albicans = assay: Microbial spectrum, C. albicans; assay type: cell-based, Candida albicans; conditions: no clavulanate; Table S4
HepG2 cells = assay: Cytotoxicity against HepG2 cells (CellTiter-Glo); assay type: cell-based, human; conditions: Table S4
Method: Compounds were tested for cytotoxicity against HepG2 cells as previously described.[48],[69],[70] Briefly, cells were exposed to compounds for 48–72 h, and viability was measured using CellTiter-Glo (Promega).

wild-type Mtb H37Rv = assay type: in vivo, 129sv DHP-1 knockout mice; conditions: for Log10 CFU per mouse (lungs), Mean: 50 mg/kg sc bid + clavulanate 100 mg/kg po bid, days 9-15, lungs day 16, untreated day 16 mean 9.1
[3] = 300 mg/kg sc, uninfected DHP-1 mice
[4] = female, 129sv DHP-1 knockout, mouse, in vivo
in vivo [5] = conditions: female, CD-1, mouse
in vivo [6] = conditions: DHP-1 knockout, mouse, sc, 300 mg/kg
in vivo [7] = conditions: female, 129sv DHP-1 knockout, mouse, sc, 50 mg/kg
physchem [8] = conditions: simulated gi fluid, pH 6.5, FaSSIF Stability, % remaining
physchem [9] = conditions: simulated gi fluid, pH 1.2
in vitro [10] = conditions: male, CD-1, mouse, plasma, Plasma stability % Remaining
in vitro [11] = conditions: SD, rat, plasma, Plasma stability % Remaining
in vitro [12] = conditions: beagle, dog, plasma
in vitro [13] = conditions: monkey, plasma
in vitro [14] = conditions: human, plasma, Plasma stability % Remaining
in vitro [15] = conditions: human; for Papp A→B at 120 min, 3 μM / Papp B→A at 120 min, 3 μM: Caco-2, pH 7.4
in vitro [16] = conditions: cynomolgus monkey, plasma, pH 7.4
in vitro [17] = conditions: beagle, dog, plasma, pH 7.4
in vitro [18] = conditions: CD-1, mouse, plasma, pH 7.4, % bound to plasma
in vitro [19] = conditions: SD, rat, plasma, pH 7.4, % bound to plasma
in vitro [20] = conditions: human, plasma, pH 7.4, % bound to plasma
[21] = Caco-2, pH 7.4, Caco-2 Mean Recovery % A to B
[22] = Caco-2, pH 7.4, Caco-2 Mean Recovery % B to A

O=C(Cc1cccs1)N[C@@H]1C(=O)N2C(C(=O)O)=C(CSc3cccc[n+]3[O-])CS[C@H]12 [TBBL-0000001]
Mtb H37Rv R + CLAV (MIC90) (Mtb H37Rv [1]): 1.7 µM | Mtb H37Rv R (MIC90) (Mtb H37Rv [1]): 3 µM | Mtb H37Rv NR + CLAV (MIC90) (Mtb H37Rv [2]): 2.2 µM | Mtb H37Rv NR (MIC90) (Mtb H37Rv [2]): 1.8 µM | E.coli R + CLAV (MIC90) (E. coli): 26.9 µM | P.aeruginosa R + CLAV (MIC90) (P. aeruginosa): > 100 µM | S.aureus R + CLAV (MIC90) (S. aureus): 0.6 µM | C.albicans R (MIC90) (C. albicans): > 100 µM | HepG2 LD50 (HepG2 cells): 67.5 µM | Log10 CFU per mouse (lungs), Mean (wild-type Mtb H37Rv): 8.8 Log10 CFU | Caco-2 Rank Papp (Caco-2 cells): Low | Comments (tolerability) [3]: Recovered at t= 8h | Tlast [3]: 2.0 to 4.0 h | Tlast [4]: 3.0 h | AUC(0-t) (in vivo [5]; iv, 5 mg/kg): 5590 ng·h/mL | Vd (in vivo [5]; iv, 5 mg/kg): 0.32 L/kg | clearance (in vivo [5]; iv, 5 mg/kg): 7.4 mL/min/kg | half-life (in vivo [5]; iv, 5 mg/kg): 30 min | k el (in vivo [5]; iv, 5 mg/kg): 0.000389 s⁻¹ | AUC(0-t) (in vivo [5]; po, 25 mg/kg): 111 ng·h/mL | bioavailability (in vivo [5]; po, 25 mg/kg): 0.19% | AUC(0-t) (in vivo [6]): 43000 ± 1680 ng·h/mL | Cmax (in vivo [6]): 29800 ± 7140 ng/mL | Tmax (in vivo [6]): 60 min | AUC(0-t) (in vivo [7]): 38100 ng·h/mL | Cmax (in vivo [7]): 27800 ng/mL | Tmax (in vivo [7]): 60 min | remaining at 24 h, 10 μM (physchem [8]): 114% | remaining at 1 h, 10 μM (physchem [9]): 102% | remaining at 24 h, 10 μM (physchem [9]): 116% | remaining at 2 h, 2 μM (in vitro [10]): 79.6% | remaining at 2 h, 2 μM (in vitro [11]): 80.6% | remaining at 2 h, 2 μM (in vitro [12]): 54.7% | remaining at 2 h, 2 μM (in vitro [13]): 117% | remaining at 2 h, 2 μM (in vitro [14]): 77.3% | Papp A→B at 120 min, 3 μM (in vitro [15]): < 0.04 ×10⁻⁶ cm/s | Papp B→A at 120 min, 3 μM (in vitro [15]): < 0.03 ×10⁻⁶ cm/s | recovery at 120 min, 3 μM (in vitro [15]; [21]): < 93.1% | recovery at 120 min, 3 μM (in vitro [15]; [22]): < 99.8% | fraction unbound at 4 h, 2 μM (in vitro [16]): 0.166 | fraction unbound at 4 h, 2 μM (in vitro [17]): 0.529 | fraction unbound at 4 h, 2 μM (in vitro [18]): 0.374 | fraction unbound at 4 h, 2 μM (in vitro [19]): 0.369 | fraction unbound at 4 h, 2 μM (in vitro [20]): 0.22

CN(C)C(=S)SCC1=C(C(=O)O)N2C(=O)[C@@H](NC(=O)Cc3cccs3)[C@H]2SC1 [TBBL-0000009]
Mtb H37Rv R + CLAV (MIC90) (Mtb H37Rv [1]): 4 µM | Mtb H37Rv R (MIC90) (Mtb H37Rv [1]): 8 µM | Mtb H37Rv NR + CLAV (MIC90) (Mtb H37Rv [2]): > 100 µM | Mtb H37Rv NR (MIC90) (Mtb H37Rv [2]): > 100 µM | E.coli R + CLAV (MIC90) (E. coli): > 100 µM | P.aeruginosa R + CLAV (MIC90) (P. aeruginosa): > 100 µM | S.aureus R + CLAV (MIC90) (S. aureus): 1 µM | C.albicans R (MIC90) (C. albicans): > 100 µM | HepG2 LD50 (HepG2 cells): 6.6 µM | Log10 CFU per mouse (lungs), Mean (wild-type Mtb H37Rv): 8.7 Log10 CFU | reduction of lung CFU compared to untreated control mice (wild-type Mtb H37Rv; mouse, in vivo): ~0.4 log10 | Caco-2 Rank Papp (Caco-2 cells): Moderate | Tlast [3]: 4.0 h | Tlast [4]: 6.0 h | AUC(0-t) (in vivo [5]; iv, 5 mg/kg): 20300 ng·h/mL | Vd (in vivo [5]; iv, 5 mg/kg): 0.18 L/kg | clearance (in vivo [5]; iv, 5 mg/kg): 4.25 mL/min/kg | half-life (in vivo [5]; iv, 5 mg/kg): 30 min | k el (in vivo [5]; iv, 5 mg/kg): 0.000389 s⁻¹ | AUC(0-t) (in vivo [5]; po, 25 mg/kg): 1360 ng·h/mL | bioavailability (in vivo [5]; po, 25 mg/kg): 1.33% | AUC(0-t) (in vivo [6]): 8810 ± 675 ng·h/mL | Cmax (in vivo [6]): 2650 ± 266 ng/mL | Tmax (in vivo [6]): 120 to 240 min | AUC(0-t) (in vivo [7]): 975 ng·h/mL | Cmax (in vivo [7]): 380 ng/mL | Tmax (in vivo [7]): 30 min | remaining at 6 h, 10 μM (physchem [8]): 85.3% | remaining at 24 h, 10 μM (physchem [8]): 90.9% | remaining at 1 h, 10 μM (physchem [9]): 31.7% | remaining at 24 h, 10 μM (physchem [9]): 9.96% | remaining at 2 h, 2 μM (in vitro [10]): 93% | remaining at 2 h, 2 μM (in vitro [11]): 95.8% | remaining at 2 h, 2 μM (in vitro [12]): 104% | remaining at 2 h, 2 μM (in vitro [13]): 133% | remaining at 2 h, 2 μM (in vitro [14]): 97.9% | Papp A→B at 120 min, 3 μM (in vitro [15]): < 0.5 ×10⁻⁶ cm/s | Papp B→A at 120 min, 3 μM (in vitro [15]): < 0.43 ×10⁻⁶ cm/s | recovery at 120 min, 3 μM (in vitro [15]; [21]): < 98.3% | recovery at 120 min, 3 μM (in vitro [15]; [22]): < 103% | fraction unbound at 4 h, 2 μM (in vitro [16]): 0.047 | fraction unbound at 4 h, 2 μM (in vitro [17]): 0.084 | fraction unbound at 4 h, 2 μM (in vitro [18]): 0.095 | fraction unbound at 4 h, 2 μM (in vitro [19]): 0.022 | fraction unbound at 4 h, 2 μM (in vitro [20]): 0.034

O=C(CCCC(NC(=O)c1ccc(Cl)cc1Cl)C(=O)O)N[C@@H]1C(=O)N2C(C(=O)O)=C(CSc3cccc[n+]3[O-])CS[C@H]12 (stereo partly shown) [TBBL-0000552]
Mtb H37Rv R + CLAV (MIC90) (Mtb H37Rv [1]): 2.9 µM | Mtb H37Rv R (MIC90) (Mtb H37Rv [1]): 2.8 µM | Mtb H37Rv NR + CLAV (MIC90) (Mtb H37Rv [2]): 2.1 µM | Mtb H37Rv NR (MIC90) (Mtb H37Rv [2]): 1.9 µM | E.coli R + CLAV (MIC90) (E. coli): 92.6 µM | P.aeruginosa R + CLAV (MIC90) (P. aeruginosa): > 100 µM | S.aureus R + CLAV (MIC90) (S. aureus): > 100 µM | C.albicans R (MIC90) (C. albicans): > 100 µM | HepG2 LD50 (HepG2 cells): 74.3 µM | Log10 CFU per mouse (lungs), Mean (wild-type Mtb H37Rv): 9.4 Log10 CFU | Caco-2 Rank Papp (Caco-2 cells): Low | Tlast [3]: 4.0 h | Tlast [4]: 3.0 h | AUC(0-t) (in vivo [5]; iv, 5 mg/kg): 7570 ng·h/mL | Vd (in vivo [5]; iv, 5 mg/kg): 0.74 L/kg | clearance (in vivo [5]; iv, 5 mg/kg): 11 mL/min/kg | half-life (in vivo [5]; iv, 5 mg/kg): 46.8 min | k el (in vivo [5]; iv, 5 mg/kg): 0.000247 s⁻¹ | AUC(0-t) (in vivo [5]; po, 25 mg/kg): 42 ng·h/mL | bioavailability (in vivo [5]; po, 25 mg/kg): 0.11% | AUC(0-t) (in vivo [6]): 61900 ± 24900 ng·h/mL | Cmax (in vivo [6]): 29900 ± 11000 ng/mL | Tmax (in vivo [6]): 60 to 120 min | AUC(0-t) (in vivo [7]): 3660 ng·h/mL | Cmax (in vivo [7]): 6190 ng/mL | Tmax (in vivo [7]): 30 min | remaining at 6 h, 10 μM (physchem [8]): 111% | remaining at 24 h, 10 μM (physchem [8]): 106% | remaining at 1 h, 10 μM (physchem [9]): 105% | remaining at 24 h, 10 μM (physchem [9]): 61.5% | remaining at 2 h, 2 μM (in vitro [10]): 89.4% | remaining at 2 h, 2 μM (in vitro [11]): 77.8% | remaining at 2 h, 2 μM (in vitro [12]): 77.9% | remaining at 2 h, 2 μM (in vitro [13]): 119% | remaining at 2 h, 2 μM (in vitro [14]): 78.6% | Papp A→B at 120 min, 3 μM (in vitro [15]): < 0.43 ×10⁻⁶ cm/s | Papp B→A at 120 min, 3 μM (in vitro [15]): 0.38 ×10⁻⁶ cm/s | recovery at 120 min, 3 μM (in vitro [15]; [21]): < 106% | recovery at 120 min, 3 μM (in vitro [15]; [22]): 123% | fraction unbound at 4 h, 2 μM (in vitro [16]): 0.198 | fraction unbound at 4 h, 2 μM (in vitro [17]): 0.417 | fraction unbound at 4 h, 2 μM (in vitro [18]): 0.439 | fraction unbound at 4 h, 2 μM (in vitro [19]): 0.109 | fraction unbound at 4 h, 2 μM (in vitro [20]): 0.143
